Test results as given in ChEMBL document CHEMBL1641593, “Benzothieno[3,2-b]quinolinium and 3-(phenylthio)quinolinium compounds: Synthesis and evaluation against opportunistic fungal pathogens” (Bioorg Med Chem, 2011).
Converted amounts (≈) assume the structure as drawn. The source made the active and inactive calls. The rule behind the calls is not given here.

Key:
[1] = test system: Aspergillus fumigatus; test: Antifungal activity against Aspergillus fumigatus ATCC 90906 by CLSI method; format: functional, organism-based
[2] = test system: Vero; test: Cytotoxicity against african green monkey Vero cells after 48 hrs by neutral red assay; format: cell-based; settings: Chlorocebus sabaeus
[3] = test system: Candida albicans; test: Antifungal activity against Candida albicans ATCC 90028 by CLSI method; format: functional, organism-based
[4] = test system: Cryptococcus neoformans; test: Antifungal activity against Cryptococcus neoformans ATCC 90113 by CLSI method; format: functional, organism-based
[5] = test system: Pichia kudriavzevii; test: Antifungal activity against Candida krusei ATCC 6258 by CLSI method; format: functional, organism-based
[6] = test system: Cryptococcus neoformans; test: Antifungal activity against Cryptococcus neoformans ATCC 90113 at 20 ug/ml by CLSI method; format: functional, organism-based
[7] = test system: Aspergillus fumigatus; test: Antifungal activity against Aspergillus fumigatus ATCC 90906 at 20 ug/ml by CLSI method; format: functional, organism-based
[8] = test system: Cryptococcus neoformans; test: Antifungal activity against Cryptococcus neoformans ATCC 52657-infected mouse assessed as reduction of CFU per gram of brain at 1 mg/kg, ip qd for 5 days relative to control; format: functional; parameters: scale not given: the % may be the effect or the level left; settings: route intraperitoneal
[9] = test system: Candida albicans; test: Antifungal activity against Candida albicans B311 ATCC 32354-infected mouse assessed as reduction of CFU per gram of kidney at 10 mg/kg, ip qd for 3 days relative to control; format: functional; parameters: scale not given: the % may be the effect or the level left; settings: route intraperitoneal
[10] = test system: Cryptococcus neoformans; test: Antifungal activity against Cryptococcus neoformans ATCC 52657-infected mouse assessed as reduction of CFU per gram of brain at 5 mg/kg, ip qd for 5 days relative to control; format: functional; parameters: scale not given: the % may be the effect or the level left; settings: route intraperitoneal
[11] = test system: Cryptococcus neoformans; test: Antifungal activity against Cryptococcus neoformans ATCC 52657-infected mouse assessed as reduction of CFU per gram of brain at 10 mg/kg, ip qd for 5 days relative to control; format: functional; parameters: scale not given: the % may be the effect or the level left; settings: route intraperitoneal
[12] = test system: Candida albicans; test: Antifungal activity against Candida albicans B311 ATCC 32354-infected mouse assessed as reduction of CFU per gram of kidney at 5 mg/kg, ip qd for 3 days relative to control; format: functional; parameters: scale not given: the % may be the effect or the level left; settings: route intraperitoneal
[13] = test system: Candida albicans; test: Antifungal activity against Candida albicans B311 ATCC 32354-infected mouse assessed as reduction of CFU per gram of kidney at 1.2 mg/kg, ip qd for 3 days relative to control; format: functional; parameters: scale not given: the % may be the effect or the level left; settings: route intraperitoneal
[14] = test system: Cryptococcus neoformans; test: Antifungal activity against Cryptococcus neoformans ATCC 52657-infected mouse assessed as reduction of CFU per gram of brain at 1.2 mg/kg, ip qd for 5 days relative to control; format: functional; parameters: scale not given: the % may be the effect or the level left; settings: route intraperitoneal
[15] = Toxicity in Candida albicans B311 ATCC 32354-infected mouse assessed as white deposits of unknown origin in peritoneal cavity at 20 mg/kg, ip qd for 3 days; format: organism-based; parameters: dose 20 mg/kg, route intraperitoneal; settings: in vivo, 72 h
[16] = test system: Candida albicans; test: Antifungal activity against Candida albicans B311 ATCC 32354-infected mouse assessed as reduction of CFU per gram of kidney at 1 mg/kg, ip qd for 3 days relative to control; format: functional; parameters: scale not given: the % may be the effect or the level left; settings: route intraperitoneal
[17] = test system: Mus musculus; test: Toxicity in Candida albicans B311 ATCC 32354-infected mouse assessed as change in body weight at 1 to 10 mg/kg, ip qd for 3 days; format: organism-based; parameters: dose 1-10 mg/kg, route intraperitoneal; settings: in vivo, 72 h
[18] = Toxicity in Candida albicans B311 ATCC 32354-infected ip dosed mouse administered qd for 3 days; format: organism-based; settings: in vivo
[19] = test system: Mus musculus; test: Toxicity in Candida albicans B311 ATCC 32354-infected mouse assessed as gross pathological lesions at 1 to 10 mg/kg, ip qd for 3 days; format: organism-based; parameters: dose 1-10 mg/kg, route intraperitoneal; settings: in vivo, 72 h
[20] = test system: Candida albicans; test: Antifungal activity against Candida albicans ATCC 90028 at 20 ug/ml by CLSI method; format: functional, organism-based

| SMILES | IC50 [1] [µg/mL] | MIC [1] [µg/mL] | IC50 [2] [µg/mL] | IC50 ([3]; Candida albicans, ATCC 90028) [µg/mL] | MIC ([3]; Candida albicans, ATCC 90028) [µg/mL] | IC50 [4] [µg/mL] | MIC [4] [µg/mL] | Activity [6] | also measured |
| --- | --- | --- | --- | --- | --- | --- | --- | --- | --- |
| COc1cccc2c1sc1cc3ccccc3[n+](C)c12.[I-] | 3 | 5 | > 10 | 7 | > 20 | 10 | > 20 |  |  |
| [I-].c1ccc(CCCCC[n+]2cc(Sc3ccccc3)cc3ccccc32)cc1 |  | 1.3 |  | 5.5 | 10 | 1.5 | 5 |  | MFC [1]: > 20 µg/mL; MFC [3]: 20 µg/mL; MFC ([3]; Candida albicans, ATCC 90028, read-out: MFC): > 20 µg/mL; MFC [4]: 10 µg/mL; IC50 [5]: 1.5 µg/mL; MFC [5]: 20 µg/mL; MIC [5]: 5 µg/mL |
| C[n+]1c2ccccc2cc2sc3ccc(Cl)cc3c21.[I-] |  |  | > 10 | 20 | > 20 |  |  | inactive | Activity [7]: inactive |
| COc1ccc2cc3sc4ccccc4c3[n+](C)c2c1.O=S(=O)([O-])C(F)(F)F | 0.4 | 0.6 | > 10 | 1.5 | 10 | 6 | > 20 |  | Activity [8]: 50%; Activity [9]: 86%; Activity [10]: 26%; Activity [11]: 10%; Activity [12]: 26%; Activity [13]: 99%; Activity [14]: 24%; Activity [15]: Toxic; Activity [16]: 34%; Activity [17]: Non-toxic; MTD at 72 h [18]: 10 mg/kg; Activity [19]: Non-toxic |
| C[n+]1c2ccccc2cc2sc3c(Cl)cccc3c21.[I-] | 6.5 | 10 |  | > 20 | > 20 | 15 | > 20 |  |  |
| C[n+]1c2cccc(O)c2cc2sc3ccccc3c21 |  |  |  |  |  |  |  | inactive | Activity [7]: inactive; Activity [20]: inactive |
| COc1cccc2c1cc1sc3ccccc3c1[n+]2C |  |  |  |  |  |  |  | inactive |  |
| COc1cccc2cc3sc4ccccc4c3[n+](C)c12.O=S(=O)([O-])C(F)(F)F | 3 | 5 |  | 15 | > 20 | 15 | > 20 |  |  |
| C[n+]1c2ccccc2cc2sc3cc(Cl)ccc3c21.[I-] | 9.5 | > 20 | > 10 | 2.5 | > 20 |  |  | inactive |  |
| C[n+]1c2ccc(Cl)cc2cc2sc3ccccc3c21.[I-] |  | 2.5 | > 23.8 | 2 | > 20 | 15 | > 20 |  |  |
| C[C@@H]1[C@H](O)[C@@H](C)/C=C/C=C/C=C/C=C/C=C/C=C/C=C/[C@H](O[C@@H]2O[C@H](C)[C@@H](O)[C@H](N)[C@@H]2O)C[C@@H]2O[C@](O)(C[C@@H](O)C[C@@H](O)[C@H](O)CC[C@@H](O)C[C@@H](O)CC(=O)O[C@H]1C)C[C@H](O)[C@H]2C(=O)O [AMPHOTERICIN B] | 1.5 (≈ 1.62 µM) | 2.5 (≈ 2.71 µM) |  |  | 0.6 (≈ 0.649 µM) | 1.5 (≈ 1.62 µM) | 2.5 (≈ 2.71 µM) |  |  |
| COc1ccc2c(c1)cc1sc3ccccc3c1[n+]2C.[I-] | 20 |  | > 23.8 | > 20 | > 20 |  | 8 |  |  |
